Laboratory results from patent US12285509B2, “Glyceryl and glycol acid compounds” (MARY KAY INC., priority 2006, dated 2025).

Assay: UV absorption (UV/Vis spectrometer, standard USP 197U testing procedures)
Format: physicochemical
From the text: UV absorption of glyceryl/acid or glycol/acid compounds and compositions containing the same can be determined by UV absorption assays that are generally known to those of ordinary skill in the art.

Molar Absorptivity (λ max 238 nm) (λ max 238 nm): 12065.7 | Molar Absorptivity (λ max 307 nm) (λ max 307 nm): 6126.4
SMILES: O=C(OCC(O)CO)c1ccccc1O (centres unmarked) [Glyceryl Mono-Salicylate]
